Results as given in patent EP1171107B1, “USE OF A PHARMACEUTICAL COMPOSITION IN THE MANUFACTURE OF A MEDICAMENT FOR THE TREATMENT OF PATHOLOGICAL CONDITIONS OF THE EYE CAUSED BY BACTERIA, VIRUSES, FUNGI, YEASTS AND PROTOZOA” (Dr. GERHARD MANN chem.-pharm. Fabrik GmbH, priority 1999, dated 2000).

Assays:
Assay type in all cases: cell-based
[1] = test system: E.coli; assay: Quantitative germ count (re-isolation, surface method) after inoculating the test preparation; details: Ausgangskeimzahl 2,7 x 10^5 KBE/ml
[2] = test system: H.influenzae; assay: as above; details: Ausgangskeimzahl 2,8 x 10^5 KBE/ml
Summary of the method: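 Surviving germs were counted by the surface method: an aliquot was spiral-plated on Kochblut-Agar and incubated at 33±2°C for max. 4 Tage, giving re-isolated counts in KBE/ml with a detection limit of 100 KBE/ml. Initial germ counts were also set by spiral-plater surface plating. The H. influenzae strain was pretested biochemically for identity and purity.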

[3] = test system: S.aureus; assay: as above; details: Ausgangskeimzahl 2,6 x 10^5 KBE/ml
Summary of the method: (§1)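 Test preparations were contaminated with ca. 10^5 CFU/ml of each strain, then sampled at 2, 6, 8, 24, 32, 48 and 72 h. Cells were centrifuged 10 min at 3000 rpm, washed in NaCl-peptone buffer, resuspended and spiral-plated on Caso agar at 33±2°C for max. 4 days. Detection limit was 100 CFU/ml.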

[4] = test system: Sc. pneumoniae; assay: as above; details: Ausgangskeimzahl 3,7 x 10^5 KBE/ml
Summary of the method: as §1

[5] = test system: P.aeruginosa; assay: as above; details: Ausgangskeimzahl 2,7 x 10^5 KBE/ml
Summary of the method: as §1

[6] = test system: S.epidermidis; assay: as above; details: Ausgangskeimzahl 2,1 x 10^5 KBE/ml
Summary of the method: as §1

[7] = test system: E.coli; assay: Qualitative examination: enrichment of the inoculated test preparation in broth
Summary of the method: (§2)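 5 ml substance + ca. 10^5 CFU/ml; contact 2, 6, 8, 24, 32, 48, 72 h; spin 10 min 3000 rpm, resuspend in NaCl-peptone buffer ×2; 2 ml → 20 ml Caso broth (H. influenzae: Fildes), 33±2°C, ≤4 d; no growth = inoculum eliminated.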

[8] = test system: S.epidermidis; assay: as above
Summary of the method: as §2

[9] = test system: Sc. pneumoniae; assay: as above
Summary of the method: as §2

[10] = test system: H.influenzae; assay: as above
Summary of the method: as §2

[11] = test system: P.aeruginosa; assay: as above
Summary of the method: as §2

## Benzalkoniumchlorid [Benzalkoniumchlorid 0,001 Gew.-%]
[1]; 2 h after inoculation
  Ergebnis der Reisolierung (in KBE/ml): <100 KBE/ml
[1]; 4 h after inoculation
  Ergebnis der Reisolierung (in KBE/ml): <100 KBE/ml
[1]; 6 h after inoculation
  Ergebnis der Reisolierung (in KBE/ml): <100 KBE/ml
[1]; 8 h after inoculation
  Ergebnis der Reisolierung (in KBE/ml): <100 KBE/ml
[1]; 24 h after inoculation
  Ergebnis der Reisolierung (in KBE/ml): <100 KBE/ml
[1]; 32 h after inoculation
  Ergebnis der Reisolierung (in KBE/ml): <100 KBE/ml
[1]; 48 h after inoculation
  Ergebnis der Reisolierung (in KBE/ml): <100 KBE/ml
[1]; 72 h after inoculation
  Ergebnis der Reisolierung (in KBE/ml): <100 KBE/ml
[2]; 2 h after inoculation
  Ergebnis der Reisolierung (in KBE/ml): <100 KBE/ml
[2]; 4 h after inoculation
  Ergebnis der Reisolierung (in KBE/ml): <100 KBE/ml
[2]; 6 h after inoculation
  Ergebnis der Reisolierung (in KBE/ml): <100 KBE/ml
[2]; 8 h after inoculation
  Ergebnis der Reisolierung (in KBE/ml): <100 KBE/ml
[2]; 24 h after inoculation
  Ergebnis der Reisolierung (in KBE/ml): <100 KBE/ml
[2]; 32 h after inoculation
  Ergebnis der Reisolierung (in KBE/ml): <100 KBE/ml
[2]; 48 h after inoculation
  Ergebnis der Reisolierung (in KBE/ml): <100 KBE/ml
[2]; 72 h after inoculation
  Ergebnis der Reisolierung (in KBE/ml): <100 KBE/ml
[3]; 2 h after inoculation
  Ergebnis der Reisolierung (in KBE/ml): <100 KBE/ml
[3]; 4 h after inoculation
  Ergebnis der Reisolierung (in KBE/ml): <100 KBE/ml
[3]; 6 h after inoculation
  Ergebnis der Reisolierung (in KBE/ml): <100 KBE/ml
[3]; 8 h after inoculation
  Ergebnis der Reisolierung (in KBE/ml): <100 KBE/ml
[3]; 24 h after inoculation
  Ergebnis der Reisolierung (in KBE/ml): <100 KBE/ml
[3]; 32 h after inoculation
  Ergebnis der Reisolierung (in KBE/ml): <100 KBE/ml
[3]; 48 h after inoculation
  Ergebnis der Reisolierung (in KBE/ml): <100 KBE/ml
[3]; 72 h after inoculation
  Ergebnis der Reisolierung (in KBE/ml): <100 KBE/ml
[4]; 2 h after inoculation
  Ergebnis der Reisolierung (in KBE/ml): <100 KBE/ml
[4]; 4 h after inoculation
  Ergebnis der Reisolierung (in KBE/ml): <100 KBE/ml
[4]; 6 h after inoculation
  Ergebnis der Reisolierung (in KBE/ml): <100 KBE/ml
[4]; 8 h after inoculation
  Ergebnis der Reisolierung (in KBE/ml): <100 KBE/ml
[4]; 24 h after inoculation
  Ergebnis der Reisolierung (in KBE/ml): <100 KBE/ml
[4]; 32 h after inoculation
  Ergebnis der Reisolierung (in KBE/ml): <100 KBE/ml
[4]; 48 h after inoculation
  Ergebnis der Reisolierung (in KBE/ml): <100 KBE/ml
[4]; 72 h after inoculation
  Ergebnis der Reisolierung (in KBE/ml): <100 KBE/ml
[5]; 2 h after inoculation
  Ergebnis der Reisolierung (in KBE/ml): <100 KBE/ml
[5]; 4 h after inoculation
  Ergebnis der Reisolierung (in KBE/ml): <100 KBE/ml
[5]; 6 h after inoculation
  Ergebnis der Reisolierung (in KBE/ml): <100 KBE/ml
[5]; 8 h after inoculation
  Ergebnis der Reisolierung (in KBE/ml): <100 KBE/ml
[5]; 24 h after inoculation
  Ergebnis der Reisolierung (in KBE/ml): <100 KBE/ml
[5]; 32 h after inoculation
  Ergebnis der Reisolierung (in KBE/ml): <100 KBE/ml
[5]; 48 h after inoculation
  Ergebnis der Reisolierung (in KBE/ml): <100 KBE/ml
[5]; 72 h after inoculation
  Ergebnis der Reisolierung (in KBE/ml): <100 KBE/ml
[6]; 2 h after inoculation
  Ergebnis der Reisolierung (in KBE/ml): <100 KBE/ml
[6]; 4 h after inoculation
  Ergebnis der Reisolierung (in KBE/ml): <100 KBE/ml
[6]; 6 h after inoculation
  Ergebnis der Reisolierung (in KBE/ml): <100 KBE/ml
[6]; 8 h after inoculation
  Ergebnis der Reisolierung (in KBE/ml): <100 KBE/ml
[6]; 24 h after inoculation
  Ergebnis der Reisolierung (in KBE/ml): <100 KBE/ml
[6]; 32 h after inoculation
  Ergebnis der Reisolierung (in KBE/ml): <100 KBE/ml
[6]; 48 h after inoculation
  Ergebnis der Reisolierung (in KBE/ml): <100 KBE/ml
[6]; 72 h after inoculation
  Ergebnis der Reisolierung (in KBE/ml): <100 KBE/ml
[7]; 2 h after inoculation
  Ergebnis der Reisolierung qualitiativ (+/-) nach Anreicherung: -
[7]; 4 h after inoculation
  Ergebnis der Reisolierung qualitiativ (+/-) nach Anreicherung: -
[7]; 6 h after inoculation
  Ergebnis der Reisolierung qualitiativ (+/-) nach Anreicherung: -
[7]; 8 h after inoculation
  Ergebnis der Reisolierung qualitiativ (+/-) nach Anreicherung: -
[7]; 24 h after inoculation
  Ergebnis der Reisolierung qualitiativ (+/-) nach Anreicherung: -
[7]; 32 h after inoculation
  Ergebnis der Reisolierung qualitiativ (+/-) nach Anreicherung: -
[7]; 48 h after inoculation
  Ergebnis der Reisolierung qualitiativ (+/-) nach Anreicherung: -
[7]; 72 h after inoculation
  Ergebnis der Reisolierung qualitiativ (+/-) nach Anreicherung: -
[8]; 2 h after inoculation
  Ergebnis der Reisolierung qualitiativ (+/-) nach Anreicherung: -
[8]; 4 h after inoculation
  Ergebnis der Reisolierung qualitiativ (+/-) nach Anreicherung: -
[8]; 6 h after inoculation
  Ergebnis der Reisolierung qualitiativ (+/-) nach Anreicherung: -
[8]; 8 h after inoculation
  Ergebnis der Reisolierung qualitiativ (+/-) nach Anreicherung: -
[8]; 24 h after inoculation
  Ergebnis der Reisolierung qualitiativ (+/-) nach Anreicherung: -
[8]; 32 h after inoculation
  Ergebnis der Reisolierung qualitiativ (+/-) nach Anreicherung: -
[8]; 48 h after inoculation
  Ergebnis der Reisolierung qualitiativ (+/-) nach Anreicherung: -
[8]; 72 h after inoculation
  Ergebnis der Reisolierung qualitiativ (+/-) nach Anreicherung: -
[9]; 2 h after inoculation
  Ergebnis der Reisolierung qualitiativ (+/-) nach Anreicherung: -
[9]; 4 h after inoculation
  Ergebnis der Reisolierung qualitiativ (+/-) nach Anreicherung: -
[9]; 6 h after inoculation
  Ergebnis der Reisolierung qualitiativ (+/-) nach Anreicherung: -
[9]; 8 h after inoculation
  Ergebnis der Reisolierung qualitiativ (+/-) nach Anreicherung: -
[9]; 24 h after inoculation
  Ergebnis der Reisolierung qualitiativ (+/-) nach Anreicherung: -
[9]; 32 h after inoculation
  Ergebnis der Reisolierung qualitiativ (+/-) nach Anreicherung: -
[9]; 48 h after inoculation
  Ergebnis der Reisolierung qualitiativ (+/-) nach Anreicherung: -
[9]; 72 h after inoculation
  Ergebnis der Reisolierung qualitiativ (+/-) nach Anreicherung: -
[10]; 2 h after inoculation
  Ergebnis der Reisolierung qualitiativ (+/-) nach Anreicherung: -
[10]; 4 h after inoculation
  Ergebnis der Reisolierung qualitiativ (+/-) nach Anreicherung: -
[10]; 6 h after inoculation
  Ergebnis der Reisolierung qualitiativ (+/-) nach Anreicherung: -
[10]; 8 h after inoculation
  Ergebnis der Reisolierung qualitiativ (+/-) nach Anreicherung: -
[10]; 24 h after inoculation
  Ergebnis der Reisolierung qualitiativ (+/-) nach Anreicherung: -
[10]; 32 h after inoculation
  Ergebnis der Reisolierung qualitiativ (+/-) nach Anreicherung: -
[10]; 48 h after inoculation
  Ergebnis der Reisolierung qualitiativ (+/-) nach Anreicherung: -
[10]; 72 h after inoculation
  Ergebnis der Reisolierung qualitiativ (+/-) nach Anreicherung: -
[11]; 2 h after inoculation
  Ergebnis der Reisolierung qualitiativ (+/-) nach Anreicherung: -
[11]; 4 h after inoculation
  Ergebnis der Reisolierung qualitiativ (+/-) nach Anreicherung: -
[11]; 6 h after inoculation
  Ergebnis der Reisolierung qualitiativ (+/-) nach Anreicherung: -
[11]; 8 h after inoculation
  Ergebnis der Reisolierung qualitiativ (+/-) nach Anreicherung: -
[11]; 24 h after inoculation
  Ergebnis der Reisolierung qualitiativ (+/-) nach Anreicherung: -
[11]; 32 h after inoculation
  Ergebnis der Reisolierung qualitiativ (+/-) nach Anreicherung: -
[11]; 48 h after inoculation
  Ergebnis der Reisolierung qualitiativ (+/-) nach Anreicherung: -
[11]; 72 h after inoculation
  Ergebnis der Reisolierung qualitiativ (+/-) nach Anreicherung: -
